Data as given in patent US11634412B2, “3-phosphoglycerate dehydrogenase inhibitors and uses thereof” (Raze Therapeutics, Inc., priority 2016, dated 2023).

molecular target: T1, Full length (FL) 3-Phosphoglycerate Dehydrogenase (PHGDH) (Homo sapiens, UniProt O43175); assay: Full length (FL) PHGDH Diaphorase coupled assay (500 uM NAD); type: biochemical; details: full-length PHGDH 5 nM, 30° C. 60 minutes, resorufin fluorescence
T1 construct: Full length (FL) 3-Phosphoglycerate Dehydrogenase (PHGDH) Diaphorase coupled assay (500 uM NAD)
T1 sequence (O43175 1-533): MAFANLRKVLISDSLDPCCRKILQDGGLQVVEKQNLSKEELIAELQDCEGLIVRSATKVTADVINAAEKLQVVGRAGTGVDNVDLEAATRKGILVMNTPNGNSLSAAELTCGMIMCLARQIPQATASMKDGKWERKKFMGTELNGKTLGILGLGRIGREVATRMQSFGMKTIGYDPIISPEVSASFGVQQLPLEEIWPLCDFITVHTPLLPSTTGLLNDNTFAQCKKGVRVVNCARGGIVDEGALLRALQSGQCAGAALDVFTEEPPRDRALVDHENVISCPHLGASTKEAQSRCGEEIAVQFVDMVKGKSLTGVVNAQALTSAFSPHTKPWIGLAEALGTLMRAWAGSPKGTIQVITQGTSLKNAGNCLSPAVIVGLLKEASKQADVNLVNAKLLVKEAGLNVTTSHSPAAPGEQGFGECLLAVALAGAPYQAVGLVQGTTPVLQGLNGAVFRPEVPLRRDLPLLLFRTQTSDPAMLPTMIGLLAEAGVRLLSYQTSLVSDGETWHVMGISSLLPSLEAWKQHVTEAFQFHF
Experimental: Full length (FL) 3-Phosphoglycerate Dehydrogenase (PHGDH) Diaphorase coupled assay (500 uM NAD)
PHGDH activity was determined by detecting the NADH produced during the reaction. Diaphorase was used to catalyze the oxidation of NADH with the concomitant reduction of resazurin to the fluorescent product resorufin. Resorufin fluorescence quantitatively reflected the production of NADH by the PHGDH reaction. To drive the forward reaction, two enzymes in the serine synthesis pathway subsequent to PHGDH, Phosphoserine aminotransferase (PSAT1) and phosphoserine phosphatase (PSPH) were also added to the reaction.
Briefly, serial dilution of compounds were incubated in a volume of 20 μL in 384 well plates with the assay mixture containing 5 nM PHGDH, 500 nM PSAT1, 500 nM PSPH, 500 μM NAD^+, 80 uM 3-phosphoglycerate, 1 mM glutamate, 57 uM Resazurin and 0.2 mg/ml Diaphorase in assay buffer containing 50 mM Trisethanoloamine (TEA) pH8.0, 10 mM MgCl2, 0.01% Tween-20 and 0.05% Bovine Serum Albumin (BSA). The plate was then incubated at 30° C. for 60 minutes and resorufin fluorescence was measured at emission wavelength 598 nm following excitation at 525 nm. The positive control consisted of the complete reaction mixture with 4% DMSO and was set to 0% inhibition.

| SMILES | IC50 |
| --- | --- |
| Cn1c(C(=O)NC2(c3ccc(C(=O)O)c(C4CC4)c3)CCOC2)cc2c(Cl)c(Cl)ccc21 (racemic) [I-101 e157, (±)-2-cyclopropyl-4-[3-[(4,5-dichloro-1-methyl-indole-2-carbonyl)amino]-tetrahydrofuran-3-yl]benzoic acid] | 1000 to 5000 nM |
| COc1cc(Cl)c2cc(C(=O)NC3(c4ccc(C(=O)O)cc4)CCOC3)n(C)c2c1 (racemic) [I-114 e34] | 1000 to 5000 nM |
| CC(C)C(C(=O)O)c1ccc(C2(NC(=O)c3cc4c(Cl)c(Cl)ccc4n3C)CCOC2)cc1 (racemic) [I-19 e94] | 1 to 1000 nM |
| CN1CC(COc2cc3c(cc(C(=O)NC4(c5ccc(C(=O)O)cc5)CCOC4)n3C)c(Cl)c2Cl)OC1=O (racemic) [I-93 e106] | 1 to 1000 nM |
| COc1cc2c(cc(C(=O)NC3(c4ccc(CC(=O)O)cc4F)COC3)n2C)c(Cl)c1F [I-61 e47] | 1 to 1000 nM |
| COc1ccc2c(cc(C(=O)NC3(c4ccc(C5(C(=O)O)CC5)cc4)CCOC3)n2C)c1Cl (racemic) [I-58 e70] | 1 to 1000 nM |
| Cc1cc(CC(=O)O)ccc1C1(NC(=O)c2cc3c(Cl)c(Cl)ccc3n2C)COC1 [I-82 e51] | 1 to 1000 nM |
| Cn1c(C(=O)NC2(c3ccc(C(C(=O)O)C4CCCC4)cc3)COC2)cc2c(Cl)c(Cl)ccc21 (racemic) [I-25 e136, (±)-2-Cyclopentyl-2-[4-[3-[(4,5-dichloro-1-methyl-indole-2-carbonyl)amino]oxetan-3-yl]phenyl]acetic acid] | 1 to 1000 nM |
| Cn1c(C(=O)NC2(c3ccc(C(=O)O)cc3)CCOC2)cc2c(Cl)c(Cl)c(OCC3CCCO3)cc21 (racemic) [I-94 e98] | 1 to 1000 nM |
| Cn1c(C(=O)NC2(c3ccc(C(C(=O)O)C4CCC4)cc3)COC2)cc2c(Cl)c(Cl)ccc21 (racemic) [I-8 e116] | 1 to 1000 nM |
| CCCC(C(=O)O)c1ccc(C2(NC(=O)c3cc4c(Cl)c(Cl)c(OC)cc4n3C)COC2)cc1 (racemic) [I-38 e115] | 1 to 1000 nM |
| Cn1c(C(=O)NC2(c3ccc(C(=O)O)cc3Cl)COC2)cc2c(Cl)c(Cl)ccc21 [I-85 e48] | 1 to 1000 nM |
| Cn1c(C(=O)NC2(c3ccc(C(=O)O)cn3)CCOC2)cc2c(Cl)c(Cl)ccc21 (racemic) [I-74 e27] | 1 to 1000 nM |
| Cn1c(C(=O)NC2(c3ccc(C(C(=O)O)C4CC4)cc3)CCOC2)cc2c(Cl)c(Cl)ccc21 (racemic) [I-15 e162, (±)-2-Cyclopropyl-2-(4-(3-(4,5-dichloro-1-methyl-1H-indole-2-carboxamido)tetrahydrofuran-3-yl)phenyl)acetic acid] | 1 to 1000 nM |
| Cc1cc(C(=O)O)ccc1C1(NC(=O)c2cc3c(Cl)c(Cl)ccc3n2C)CCOC1 (racemic) [I-99 e89] | 1 to 1000 nM |
| COc1ccc2c(cc(C(=O)NC3(c4ccc(C(=O)O)cc4F)COC3)n2C)c1Cl [I-75 e66] | 1 to 1000 nM |
| Cn1c(C(=O)NC2(c3ccc(C(C)(C)C(=O)O)cc3F)CCOC2)cc2c(Cl)c(Cl)ccc21 (racemic) [I-54 e79] | 1 to 1000 nM |
| COc1cc2c(cc(C(=O)NC3(c4ccc(C(C)C(=O)O)cc4F)CCOC3)n2C)c(Cl)c1Cl (racemic) [I-55 e54] | 1 to 1000 nM |

| SMILES | IC50 |
| --- | --- |
| COc1cc2c(cc(C(=O)NC3(c4ccc(CC(=O)O)cc4F)COC3)n2C)c(Cl)c1Cl [I-86 e45] | 1 to 1000 nM |
| Cn1c(C(=O)NC2(c3ccc(C(=O)O)c(C#N)c3)CCOC2)cc2c(Cl)c(Cl)ccc21 (racemic) [I-120 e154, (±)-2-Cyano-4-(3-(4,5-dichloro-1-methyl-1H-indole-2-carboxamido)tetrahydrofuran-3-yl)benzoic acid] | 1 to 1000 nM |
| Cn1c(C(=O)NC2(c3ccc(C(C)(C)C(=O)O)cc3F)COC2)cc2c(Cl)c(Cl)ccc21 [I-37 e109] | 1 to 1000 nM |
| COCCOc1cc2c(cc(C(=O)NC3(c4ccc(C(=O)O)cc4)CCOC3)n2C)c(Cl)c1Cl (racemic) [I-100 e99] | 1 to 1000 nM |
| COc1ccc2c(cc(C(=O)NC3(c4ccc(C(CCCO)C(=O)O)cc4)COC3)n2C)c1Cl (centres unmarked) [I-11 e72] | 1 to 1000 nM |
| C[C@@H](C(=O)O)c1ccc(C2(NC(=O)c3cc4c(Cl)c(Cl)ccc4n3C)COC2)cc1 (single isomer, unassigned) [I-34 or I-35 e161 peak 2] | 1 to 1000 nM |
| Cc1ccc2c(cc(C(=O)NC3(c4ccc(C(=O)O)cc4)CCOC3)n2C)c1Cl (racemic) [I-116 e32] | 1 to 1000 nM |
| Cn1c(C(=O)NC2(c3ccc(C4(C(=O)O)CC4)cc3)COC2)cc2c(Cl)c(Cl)ccc21 [I-28 e108] | 1 to 1000 nM |
| Cn1c(C(=O)NC2(c3ccc(C(C(=O)O)C4CCCC4)cc3)CCOC2)cc2c(Cl)c(Cl)ccc21 (racemic) [I-16 e87] | 1 to 1000 nM |
| Cc1cc(C2(NC(=O)c3cc4c(Cl)c(Cl)ccc4n3C)CCOC2)ccc1C(=O)O (racemic) [I-98 e155, (±)-4-[3-[(4,5-Dichloro-1-methyl-indole-2-carbonyl)amino]tetrahydro-furan-3-yl]-2-methyl-benzoic acid] | 1 to 1000 nM |
| COc1ccc2c(cc(C(=O)NC3(c4ccc(C(C)(C)C(=O)O)cc4)COC3)n2C)c1Cl [I-27 e110] | 1 to 1000 nM |
| COc1ccc2c(cc(C(=O)NC3(c4ccc(C(C)C(=O)O)cc4)CCOC3)n2C)c1Cl (racemic) [I-64 e57] | 1 to 1000 nM |
| Cn1c(C(=O)NC2(c3ccc(C(=O)O)cc3)CCOC2)cc2c(Cl)cc(OCC3CNC(=O)O3)cc21 (racemic) [I-95 e96] | 1000 to 5000 nM |
| COc1cc2c(cc(C(=O)NC3(c4ccc(C(=O)O)cc4C)COC3)n2C)c(Cl)c1C [I-45 e74] | 1 to 1000 nM |
| CCC(C(=O)O)c1ccc(C2(NC(=O)c3cc4c(Cl)c(Cl)ccc4n3C)COC2)cc1 (racemic) [I-42 e133] | 1 to 1000 nM |
| COc1cc(CC(=O)O)ccc1C1(NC(=O)c2cc3c(Cl)c(Cl)ccc3n2C)COC1 [I-69 e52] | 5000 to 10000 nM |
| CC(=O)N1CCC(NC(=O)c2cc3c(Cl)c(Cl)ccc3n2C)(c2ccc(C(=O)O)cc2)C1 (racemic) [I-110 e20] | 1 to 1000 nM |

More lines, now with the values ahead:

| IC50 | SMILES |
| --- | --- |
| 1 to 1000 nM | Cn1c(C(=O)NC2(c3ccc(C(C(=O)O)C4CCC4)cc3)CCOC2)cc2c(Cl)c(Cl)ccc21 (racemic) [I-12 e86] |
| 1 to 1000 nM | COc1ccc2c(cc(C(=O)NC3(c4ccc(C(=O)O)cc4C)COC3)n2C)c1Cl [I-60 e65] |
| 1 to 1000 nM | COc1ccc2c(cc(C(=O)NC3(c4ccc(C(C)(C)C(=O)O)cc4F)CCOC3)n2C)c1Cl (racemic) [I-39 e81] |
| 1 to 1000 nM | COc1cc2c(cc(C(=O)NC3(c4ccc(C(=O)O)cc4F)COC3)n2C)c(Cl)c1F [I-56 e78] |
| 1 to 1000 nM | CCC(=O)NS(=O)(=O)c1ccc(C2(NC(=O)c3cc4c(Cl)c(OC)ccc4n3C)COC2)cc1 [I-161 e164, 4-Chloro-5-methoxy-1-methyl-N-(3-(4-(N-propanoylsulfamoyl)phenyl)-oxetan-3-yl)-1H-indole-2-carboxamide] |
| 1 to 1000 nM | COc1cc2c(cc(C(=O)NC3(c4ccc(C(=O)O)cc4C)COC3)n2C)c(Cl)c1F [I-47 e77] |
| 1 to 1000 nM | CN1CC(COc2cc3c(cc(C(=O)NC4(c5ccc(C(=O)O)cc5)CCOC4)n3C)c(Cl)c2Cl)CC1=O (racemic) [I-102 e100] |
| 1 to 1000 nM | Cn1c(C(=O)NC2(c3ccc(C(=O)O)cc3F)COC2)cc2c(Cl)c(Cl)ccc21 [I-79 e41] |
| 1 to 1000 nM | Cn1c(C(=O)NC2(c3ccc(C(=O)O)cc3)CCOC2)cc2c(Cl)c(C3CC3)ccc21 (racemic) [I-96 e36] |
| 1 to 1000 nM | CCC(C(=O)O)c1ccc(C2(NC(=O)c3cc4c(Cl)c(Cl)c(OC)cc4n3C)COC2)cc1 (racemic) [I-14 e113] |
| 1 to 1000 nM | CCC(C(=O)O)c1ccc(C2(NC(=O)c3cc4c(Cl)c(Cl)c(OC)cc4n3C)CCOC2)cc1 (racemic) [I-23 e82] |
| 1 to 1000 nM | COc1ccc2c(cc(C(=O)NC3(c4ccc(CC(=O)O)cc4)CCOC3)n2C)c1Cl (racemic) [I-78 e40] |
| 1 to 1000 nM | COc1ccc2c(cc(C(=O)NC3(c4ccc(C(C)(C)C(=O)O)cc4)CCOC3)n2C)c1Cl (racemic) [I-77 e63] |
| 1 to 1000 nM | Cn1c(C(=O)NC2(c3ccc(C(C)(C)C(=O)O)cc3)COC2)cc2c(Cl)c(Cl)ccc21 [I-36 e107] |
| 1 to 1000 nM | COc1cc2c(cc(C(=O)NC3(c4ccc(C(C(=O)O)C5CCC5)cc4)COC3)n2C)c(Cl)c1Cl (racemic) [I-7 e117] |
| 1 to 1000 nM | CCCC(C(=O)O)c1ccc(C2(NC(=O)c3cc4c(Cl)c(Cl)ccc4n3C)COC2)cc1 (racemic) [I-24 e114] |
| 1 to 1000 nM | COc1ccc2c(cc(C(=O)NC3(c4ccc(C(C(=O)O)C5CCCCC5)cc4)COC3)n2C)c1Cl (racemic) [I-156 e119] |
| 1 to 1000 nM | COc1ccc2c(cc(C(=O)NC3(c4ccc(C(C)C(=O)O)cc4F)COC3)n2C)c1Cl (racemic) [I-49 e60] |
